Assay results reported in patent publication US20080108674A1, “CATIONIC ANTISEPTIC AND DYE FORMULATION” (ENTURIA, INC., priority 2006, published 2008).

Columns and labels:
[1] = Compatibility of an anionic dye alone with an aqueous CHG solution (Example 1); type: physicochemical; conditions: 0.13% w/v dye in distilled water, no cationic excipient; after two drops
Description: The compatibility of an anionic dye alone with an aqueous chlorhexidine gluconate (CHG) solution (i.e., without the addition of a cationic excipient) was tested. A 0.13% w/v anionic dye solution was prepared by dissolving 0.13 g FD&C Yellow 6 in 100 ml of distilled water. A 20% w/v aqueous CHG solution was then added drop wise to the dye solution.

[2] = Three-month room temperature storage of aqueous CHG / cationic dye solutions (Examples 7, 8); type: physicochemical; conditions: 2.0% w/v CHG and 0.05% w/v dye in water
Description: The chemical structure and chemical category of each of these dyes are presented below. Crystal violet, malachite green, and Victoria pure blue BO all belong to the same chemical family, triarylmethane. Bismark brown and acriflavine each belong to a different chemical family, azo and acridine, respectively. [drawing 3] [drawing 4]
Aqueous solutions of 2.0% w/v CHG and 0.05% w/v dye were prepared for each of the dyes indicated above to test the stability of the solutions. Each aqueous solution was prepared using a Class A 100 ml volumetric flask, in which 0.050 grams of dye were dissolved in 30.0 ml of distilled water. Additionally, 10.6 g of 20% w/v aqueous CHG solution was added to the flask. The solution was then brought up to volume with distilled water. The solutions were stored for three months at room temperatures.
In particular, the dye tested was azure C, which is a cationic dye that belongs to the thiazin family. Its positive charge comes from a tertiary sulfur atom instead of a quaternary nitrogen atom. The chemical structure and chemical category of azure C is presented below. [drawing 5]
An aqueous solution of 2.0% w/v CHG and 0.05% w/v azure C dye was prepared to test the stability of the solution. The solution was prepared similar to the preparation of the solutions in Example 7. […]

| SMILES | precipitate on drop wise addition of 20% w/v aqueous CHG solution to the dye solution [1] | time solution stable and dye compatible ([2]; room temperature) | visible precipitate ([2]; stored three months at room temperature) |
| --- | --- | --- | --- |
| O=S(=O)([O-])c1ccc(N=Nc2c(O)ccc3cc(S(=O)(=O)[O-])ccc23)cc1.[Na+].[Na+] [FD&C Yellow 6, FD&C Yellow No. 6 (Sunset Yellow FCF)] | precipitate was formed |  |  |
| CNc1ccc2nc3ccc(N)cc3[s+]c2c1.[Cl-] [azure C] |  | at least three months | no visible precipitate |
